Seven compounds from PubChem BioAssay (NCI) can be followed below.

“And” between values parts separate entries of the source, which are not always exact repeats. Identical values can stand only once.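 Interpolation was linear, between the two tested concentrations surrounding the appropriate level; five concentrations were tested over 48 hours in 96-well plates. GI50 marks 50% less growth. The concentration for full growth arrest is given as TGI.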

Some test systems named below: NCI/ADR-RES ovarian; SF-268 CNS; OVCAR-8 ovarian; HOP-92 NSCLC; CCRF-CEM leukemia; PC-3 prostate; NCI-H460 lung; RXF 393 renal; SR leukemia; SK-MEL-5 melanoma.
Holding throughout (experiment): NCI tumour cell line growth inhibition, 48 h

Consider `CN1CCN(Cc2ccc(NC(=O)c3cncc(C#Cc4cnc5cccnn45)c3)cc2C(F)(F)F)CC1`, for which the GI50 is 1.83 µM in the experiment with NCI/ADR-RES ovarian; 1.19 µM in the experiment with SF-268 CNS; 1.66 µM with OVCAR-8 ovarian; 0.492 µM in the experiment with HOP-92 NSCLC; 1.52 µM in the experiment with CCRF-CEM leukemia; 1.44 µM in the experiment on PC-3 prostate. The GI50 in the experiment on NCI-H460 lung was 1.27 µM; in the experiment with RXF 393 renal it was 0.783 µM; in the experiment with SR leukemia, 1.39 µM; with SK-MEL-5 melanoma it was 1.06 µM. Also, the TGI in the experiment on NCI/ADR-RES ovarian is 8.1 µM; in the experiment on SF-268 CNS, 2.81 µM; in the experiment on OVCAR-8 ovarian, 6.3 µM; in the experiment on HOP-92 NSCLC it was 3.13 µM; in the experiment on CCRF-CEM leukemia, 15.2 µM; with PC-3 prostate it was 5.75 µM. In addition, the TGI in the experiment on NCI-H460 lung was 3.44 µM; in the experiment with RXF 393 renal, 1.71 µM; with SR leukemia, 17.6 µM; in the experiment with SK-MEL-5 melanoma, 2.42 µM.

For the compound `Brc1ccc2c(c1)-c1ccccc1C1=NCCN12`, the GI50 in the experiment on NCI/ADR-RES ovarian is 0.897 µM; in the experiment on SF-268 CNS it was 1.77 µM; in the experiment with OVCAR-8 ovarian it was 0.573 µM; in the experiment on HOP-92 NSCLC, 1.33 µM; with CCRF-CEM leukemia, 1.74 µM; with PC-3 prostate it was 0.763 µM. The GI50 is 0.399 µM in the experiment on NCI-H460 lung, 1.29 µM in the experiment with RXF 393 renal, 0.753 µM with SR leukemia and 1.52 µM in the experiment on SK-MEL-5 melanoma. Further, the TGI came to 26.7 µM with NCI/ADR-RES ovarian; 9.44 µM with SF-268 CNS; 12.1 µM with OVCAR-8 ovarian; 5.74 µM with HOP-92 NSCLC; 4.93 µM in the experiment on CCRF-CEM leukemia; 11 µM with PC-3 prostate. Moreover, the TGI in the experiment with NCI-H460 lung stood at 2.71 µM; in the experiment on RXF 393 renal, 3.23 µM; with SR leukemia, 3.83 µM; in the experiment on SK-MEL-5 melanoma, 3.24 µM.

With `Cn1c(=O)c(Oc2ccc(F)cc2F)cc2cnc(NC3CCC(O)CC3)nc21` (centres undefined), the GI50 with NCI/ADR-RES ovarian is > 25 µM; in the experiment on SF-268 CNS it was > 25 µM; in the experiment on OVCAR-8 ovarian, > 25 µM; in the experiment with HOP-92 NSCLC it was 0.779 µM; in the experiment on CCRF-CEM leukemia it was > 25 µM; with PC-3 prostate, > 25 µM. The GI50 in the experiment on NCI-H460 lung, with RXF 393 renal, with SR leukemia and in the experiment on SK-MEL-5 melanoma was > 25 µM throughout. Besides, the TGI in the experiment on NCI/ADR-RES ovarian is > 25 µM; with SF-268 CNS, > 25 µM; in the experiment with OVCAR-8 ovarian, > 25 µM; in the experiment on HOP-92 NSCLC, 19.3 µM; with CCRF-CEM leukemia, > 25 µM; with PC-3 prostate it was > 25 µM. Further, the TGI in the experiment with NCI-H460 lung, with RXF 393 renal, with SR leukemia and in the experiment on SK-MEL-5 melanoma was > 25 µM each time.

In the case of `COc1cc2nccc(Oc3ccc(NC(=O)C4(C(=O)Nc5ccc(F)cc5)CC4)cc3)c2cc1OC`, the GI50 was > 10 µM and 3.43 µM in the experiment with NCI/ADR-RES ovarian; > 10 µM and 4.54 µM with SF-268 CNS; > 10 µM and 5.74 µM in the experiment on OVCAR-8 ovarian; > 10 µM and 3.65 µM with CCRF-CEM leukemia; > 10 µM and 3.42 µM in the experiment with PC-3 prostate; > 10 µM and 3.27 µM in the experiment with NCI-H460 lung. Besides, the GI50 is > 10 µM and 2.17 µM in the experiment with RXF 393 renal; > 10 µM and 2.21 µM in the experiment with SR leukemia; > 10 µM and 4.66 µM with SK-MEL-5 melanoma. Further, the TGI with NCI/ADR-RES ovarian was > 100 µM; in the experiment with SF-268 CNS, > 100 µM; with OVCAR-8 ovarian, > 100 µM; in the experiment on HOP-92 NSCLC it was 8.01 µM and 1.46 µM; in the experiment with CCRF-CEM leukemia, > 100 µM; in the experiment on PC-3 prostate it was > 100 µM. For the same compound, the TGI was > 94.6 µM with NCI-H460 lung; > 10 µM and 6.93 µM with RXF 393 renal; > 23.7 µM in the experiment with SR leukemia; > 100 µM in the experiment with SK-MEL-5 melanoma.

Consider `CCc1c[nH]c2ncnc(N3CC[C@](N)(CNC(=O)c4ccc(F)cc4F)C3)c12`, for which the GI50 in the experiment with NCI/ADR-RES ovarian is > 61.2 µM; in the experiment with SF-268 CNS, 33.3 µM; in the experiment on OVCAR-8 ovarian, 28.2 µM; in the experiment on HOP-92 NSCLC it was 0.23 µM; with CCRF-CEM leukemia, 2.72 µM; in the experiment with PC-3 prostate, 1 µM. The GI50 with NCI-H460 lung was 1.78 µM; in the experiment on RXF 393 renal, 0.244 µM; in the experiment on SR leukemia, 2.19 µM; in the experiment with SK-MEL-5 melanoma it was 15.8 µM. In addition, the TGI in the experiment with NCI/ADR-RES ovarian was > 100 µM; in the experiment with SF-268 CNS, > 100 µM; with OVCAR-8 ovarian, > 100 µM; with HOP-92 NSCLC, 7.57 µM; in the experiment with CCRF-CEM leukemia it was > 91.2 µM; with PC-3 prostate, > 91.7 µM. The TGI in the experiment on NCI-H460 lung is > 100 µM; with RXF 393 renal, 8.02 µM; in the experiment on SR leukemia it was > 66.3 µM; with SK-MEL-5 melanoma it was > 52.5 µM.

With `CC(=O)Nc1ccc(C(=O)COc2cccc(/C=C3\CCc4ccccc4C3=O)c2)cc1`, the GI50 was 10.5 µM with NCI/ADR-RES ovarian; 19 µM in the experiment on SF-268 CNS; 23.6 µM with OVCAR-8 ovarian; 15.1 µM with HOP-92 NSCLC; 2.31 µM with CCRF-CEM leukemia; 10.1 µM with PC-3 prostate. Also, the GI50 is 16.1 µM with NCI-H460 lung, 24.8 µM with RXF 393 renal, 0.0802 µM with SR leukemia and 2.9 µM in the experiment with SK-MEL-5 melanoma. Also, the TGI with NCI/ADR-RES ovarian was 65.9 µM; in the experiment on SF-268 CNS, 52.4 µM; in the experiment with OVCAR-8 ovarian it was > 100 µM; in the experiment with HOP-92 NSCLC, 60.9 µM; with CCRF-CEM leukemia, 6.09 µM; in the experiment with PC-3 prostate it was 47.2 µM. The TGI amounted to 37.1 µM with NCI-H460 lung, 57.8 µM in the experiment on RXF 393 renal, 16.7 µM in the experiment on SR leukemia and 11 µM in the experiment with SK-MEL-5 melanoma.

In the case of `COC(=O)/C(=C/c1ccc(OC)cc1)c1cc(OC)c(OC)c(OC)c1`, the TGI with NCI/ADR-RES ovarian was > 100 µM; with SF-268 CNS it was > 79.1 µM; in the experiment on OVCAR-8 ovarian it was > 100 µM; in the experiment with HOP-92 NSCLC, > 55.9 µM; with CCRF-CEM leukemia, > 55.7 µM; with PC-3 prostate it was > 100 µM. For the same compound, the TGI in the experiment on NCI-H460 lung was 45.9 µM; with RXF 393 renal it was 3.38 µM; in the experiment on SR leukemia, > 19.6 µM; in the experiment with SK-MEL-5 melanoma it was > 39.3 µM.
